# Results as given in ChEMBL document CHEMBL1201862, “PubChem BioAssay data set” (2004).
#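 Exposure lasted 48 hours, with cells grown in 96-well plates and compounds tested at five concentrations. GI50 marks 50% less growth.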 Activity calls are given as the source filed them. Cut-off read from the data, not from the text of the source: active = GI50 up to about 1.1 µM and inactive = higher.
# What was measured:
# Test in all cases: NCI tumour cell line growth inhibition, 48 h
# [1] = test system: SW-620
# [2] = test system: SNB-75
# [3] = test system: SNB-19
# [4] = test system: HCT-15
# [5] = test system: SR
# [6] = test system: SK-MEL-5
# [7] = test system: 786-0
# [8] = test system: UO-31
# [9] = test system: COLO 205
# [10] = test system: OVCAR-3
# [11] = test system: KM-20L2
# [12] = test system: CCRF-CEM
# [13] = test system: SK-OV-3
# [14] = test system: CAKI-1
# [15] = test system: KM12
# [16] = test system: HCT-116
# [17] = test system: SK-MEL-28
# [18] = test system: LXFL 529
# [19] = test system: ACHN
# [20] = test system: SF-295
# [21] = test system: RPMI-8226
# [22] = test system: UACC-257
# [23] = test system: M14
# [24] = test system: NCI-H23
# [25] = test system: DLD-1
# [26] = test system: LOX IMVI
# [27] = test system: NCI-H226
# [28] = test system: MOLT-4
# [29] = test system: HCC 2998
# [30] = test system: TK-10
# [31] = test system: M19-MEL
# [32] = test system: UACC-62
# [33] = test system: RXF 393
# [34] = test system: IGROV-1
# [35] = test system: XF498
# [36] = test system: HOP-18
# [37] = test system: Malme-3M
# [38] = test system: DMS-273
# [39] = test system: A549
# [40] = test system: HL-60
# [41] = test system: OVCAR-4
# [42] = test system: U-251
# [43] = test system: SN12C
# [44] = test system: A498
# [45] = test system: OVCAR-5
# [46] = test system: HT-29
# [47] = test system: EKVX
# [48] = test system: SF-268
# [49] = test system: SK-MEL-2
# [50] = test system: SNB-78
# [51] = test system: NCI-H522
# [52] = test system: NCI-H460
# [53] = test system: SF-539
# [54] = test system: OVCAR-8
# [55] = test system: HOP-92
# [56] = test system: K562
# [57] = test system: DMS-114
# [58] = test system: HOP-62
structure (smiles),measurement,setting,value
COc1ccc(CCc2ccccc2CC(=O)O)cc1,GI50,[1],> 100 µM (inactive)
same,GI50,[2],> 100 µM (inactive)
same,GI50,[3],> 100 µM (inactive)
same,GI50,[4],> 100 µM
same,GI50,[5],> 100 µM (inactive)
same,GI50,[6],> 100 µM (inactive)
same,GI50,[7],> 100 µM (inactive)
same,GI50,[8],> 100 µM (inactive)
same,GI50,[9],> 100 µM (inactive)
same,GI50,[10],> 100 µM (inactive)
same,GI50,[11],> 100 µM (inactive)
same,GI50,[12],> 100 µM (inactive)
same,GI50,[13],> 100 µM (inactive)
same,GI50,[14],> 100 µM (inactive)
same,GI50,[15],> 100 µM (inactive)
same,GI50,[16],> 100 µM (inactive)
same,GI50,[17],> 100 µM (inactive)
same,GI50,[18],> 100 µM (inactive)
same,GI50,[19],> 100 µM (inactive)
same,GI50,[20],> 100 µM (inactive)
same,GI50,[21],> 100 µM (inactive)
same,GI50,[22],> 100 µM (inactive)
same,GI50,[23],> 100 µM (inactive)
same,GI50,[24],> 100 µM (inactive)
same,GI50,[25],> 100 µM (inactive)
same,GI50,[26],> 100 µM (inactive)
same,GI50,[27],> 100 µM (inactive)
same,GI50,[28],> 100 µM (inactive)
same,GI50,[29],> 100 µM (inactive)
same,GI50,[30],> 100 µM (inactive)
same,GI50,[31],> 100 µM (inactive)
same,GI50,[32],> 100 µM (inactive)
same,GI50,[33],> 100 µM (inactive)
same,GI50,[34],> 100 µM (inactive)
same,GI50,[35],> 100 µM (inactive)
same,GI50,[36],> 100 µM (inactive)
same,GI50,[37],> 100 µM (inactive)
same,GI50,[38],> 100 µM (inactive)
same,GI50,[39],> 100 µM (inactive)
same,GI50,[40],> 100 µM (inactive)
same,GI50,[41],> 100 µM (inactive)
same,GI50,[42],> 100 µM (inactive)
same,GI50,[43],> 100 µM (inactive)
same,GI50,[44],> 100 µM (inactive)
same,GI50,[45],> 100 µM (inactive)
same,GI50,[46],> 100 µM (inactive)
same,GI50,[47],> 100 µM (inactive)
same,GI50,[48],> 100 µM (inactive)
same,GI50,[49],> 100 µM (inactive)
same,GI50,[50],> 100 µM (inactive)
same,GI50,[51],> 100 µM (inactive)
same,GI50,[52],> 100 µM (inactive)
same,GI50,[53],> 100 µM (inactive)
same,GI50,[54],> 100 µM (inactive)
same,GI50,[55],> 100 µM (inactive)
same,GI50,[56],> 100 µM (inactive)
same,GI50,[57],> 100 µM (inactive)
CCOC(=O)C1=C(C)N(Cc2ccccc2)C(=O)C1CC#N (configuration not stated),GI50,[1],34 µM (inactive)
same,GI50,[2],55.2 µM (inactive)
same,GI50,[3],> 100 µM (inactive)
same,GI50,[4],> 100 µM
same,GI50,[5],49.8 µM (inactive)
same,GI50,[7],> 100 µM (inactive)
same,GI50,[8],> 100 µM (inactive)
same,GI50,[9],> 100 µM (inactive)
same,GI50,[10],> 100 µM (inactive)
same,GI50,[11],> 100 µM (inactive)
same,GI50,[12],31.6 µM (inactive)
same,GI50,[13],> 100 µM (inactive)
same,GI50,[14],> 100 µM (inactive)
same,GI50,[15],> 100 µM (inactive)
same,GI50,[16],> 100 µM (inactive)
same,GI50,[17],> 100 µM (inactive)
same,GI50,[18],43.4 µM (inactive)
same,GI50,[19],> 100 µM (inactive)
same,GI50,[20],> 100 µM (inactive)
same,GI50,[21],99.8 µM (inactive)
same,GI50,[22],> 100 µM (inactive)
same,GI50,[23],> 100 µM (inactive)
same,GI50,[24],> 100 µM (inactive)
same,GI50,[25],56.1 µM (inactive)
same,GI50,[28],55.3 µM (inactive)
same,GI50,[29],> 100 µM (inactive)
same,GI50,[31],> 100 µM (inactive)
same,GI50,[32],80 µM (inactive)
same,GI50,[33],56 µM (inactive)
same,GI50,[34],> 100 µM (inactive)
same,GI50,[35],< 0.01 µM (active)
same,GI50,[36],17 µM (inactive)
same,GI50,[38],> 100 µM (inactive)
same,GI50,[39],> 100 µM (inactive)
same,GI50,[40],26.7 µM (inactive)
same,GI50,[41],47.1 µM (inactive)
same,GI50,[42],> 100 µM (inactive)
same,GI50,[43],> 100 µM (inactive)
same,GI50,[44],> 100 µM (inactive)
same,GI50,[46],> 100 µM (inactive)
same,GI50,[47],> 100 µM (inactive)
same,GI50,[49],> 100 µM (inactive)
same,GI50,[50],37.2 µM (inactive)
same,GI50,[52],> 100 µM (inactive)
same,GI50,[53],> 100 µM (inactive)
same,GI50,[54],83.9 µM (inactive)
same,GI50,[55],20.7 µM (inactive)
same,GI50,[56],70.3 µM (inactive)
same,GI50,[57],45.1 µM (inactive)
same,GI50,[58],> 100 µM (inactive)
Nc1nc(N)c2ncn(CC(CO)CC(c3ccccc3)P(=O)(O)O)c2n1 (configuration not stated),GI50,[1],> 100 µM (inactive)
same,GI50,[2],> 100 µM (inactive)
same,GI50,[3],> 100 µM (inactive)
same,GI50,[4],> 100 µM
same,GI50,[6],> 100 µM (inactive)
same,GI50,[8],> 100 µM (inactive)
same,GI50,[9],> 100 µM (inactive)
same,GI50,[10],> 100 µM (inactive)
same,GI50,[11],> 100 µM (inactive)
same,GI50,[12],> 100 µM (inactive)
same,GI50,[13],> 100 µM (inactive)
same,GI50,[14],> 100 µM (inactive)
same,GI50,[15],> 100 µM (inactive)
same,GI50,[16],> 100 µM (inactive)
same,GI50,[17],> 100 µM (inactive)
same,GI50,[19],> 100 µM (inactive)
same,GI50,[20],> 100 µM (inactive)
same,GI50,[21],> 100 µM (inactive)
same,GI50,[22],> 100 µM (inactive)
same,GI50,[23],2.43 µM (inactive)
same,GI50,[24],> 100 µM (inactive)
same,GI50,[25],> 100 µM (inactive)
same,GI50,[26],> 100 µM (inactive)
same,GI50,[27],> 100 µM (inactive)
same,GI50,[28],> 100 µM (inactive)
same,GI50,[29],> 100 µM (inactive)
same,GI50,[30],> 100 µM (inactive)
same,GI50,[31],> 100 µM (inactive)
same,GI50,[32],> 100 µM (inactive)
same,GI50,[33],> 100 µM (inactive)
same,GI50,[34],> 100 µM (inactive)
same,GI50,[35],> 100 µM (inactive)
same,GI50,[36],> 100 µM (inactive)
same,GI50,[37],> 100 µM (inactive)
same,GI50,[38],> 100 µM (inactive)
same,GI50,[39],> 100 µM (inactive)
same,GI50,[40],> 100 µM (inactive)
same,GI50,[42],> 100 µM (inactive)
same,GI50,[43],> 100 µM (inactive)
same,GI50,[44],> 100 µM (inactive)
same,GI50,[45],> 100 µM (inactive)
same,GI50,[46],> 100 µM (inactive)
same,GI50,[48],> 100 µM (inactive)
same,GI50,[49],> 100 µM (inactive)
same,GI50,[50],> 100 µM (inactive)
same,GI50,[51],> 100 µM (inactive)
same,GI50,[52],> 100 µM (inactive)
same,GI50,[53],> 100 µM (inactive)
same,GI50,[54],> 100 µM (inactive)
same,GI50,[55],> 100 µM (inactive)
same,GI50,[56],> 100 µM (inactive)
same,GI50,[57],> 100 µM (inactive)
same,GI50,[58],> 100 µM (inactive)
O=c1c(O)c(-c2ccc(O)c(O)c2)oc2cc(O)ccc12 [FISETIN],GI50,[1],23.8 µM (inactive)
same,GI50,[2],5.27 µM (inactive)
same,GI50,[3],10.7 µM (inactive)
same,GI50,[4],14.4 µM
same,GI50,[5],18 µM (inactive)
same,GI50,[6],13.1 µM (inactive)
same,GI50,[7],24.8 µM (inactive)
same,GI50,[8],14.5 µM (inactive)
same,GI50,[9],47.4 µM (inactive)
same,GI50,[10],19.9 µM (inactive)
same,GI50,[11],27.2 µM (inactive)
same,GI50,[12],8.99 µM (inactive)
same,GI50,[13],9.66 µM (inactive)
same,GI50,[15],5.62 µM (inactive)
same,GI50,[16],16.3 µM (inactive)
same,GI50,[17],21.7 µM (inactive)
same,GI50,[18],15 µM (inactive)
same,GI50,[19],18.7 µM (inactive)
same,GI50,[20],18.5 µM (inactive)
same,GI50,[21],26.8 µM (inactive)
same,GI50,[22],22.3 µM (inactive)
same,GI50,[23],18.2 µM (inactive)
same,GI50,[24],11.6 µM (inactive)
same,GI50,[25],20.2 µM (inactive)
same,GI50,[26],13.6 µM (inactive)
same,GI50,[27],9.79 µM (inactive)
same,GI50,[28],17 µM (inactive)
same,GI50,[29],18.1 µM (inactive)
same,GI50,[30],29.7 µM (inactive)
same,GI50,[31],26 µM (inactive)
same,GI50,[32],10.7 µM (inactive)
same,GI50,[33],23.9 µM (inactive)
same,GI50,[34],18.6 µM (inactive)
same,GI50,[35],20.9 µM (inactive)
same,GI50,[36],21.2 µM (inactive)
same,GI50,[37],20.4 µM (inactive)
same,GI50,[38],11.5 µM (inactive)
same,GI50,[39],30.3 µM (inactive)
same,GI50,[40],28.7 µM (inactive)
same,GI50,[41],31 µM (inactive)
same,GI50,[42],7.14 µM (inactive)
same,GI50,[43],20.8 µM (inactive)
same,GI50,[44],26.3 µM (inactive)
same,GI50,[45],17.2 µM (inactive)
same,GI50,[46],25.8 µM (inactive)
same,GI50,[47],25.4 µM (inactive)
same,GI50,[48],24.9 µM (inactive)
same,GI50,[49],8.75 µM (inactive)
same,GI50,[50],20.1 µM (inactive)
same,GI50,[51],13.6 µM (inactive)
same,GI50,[52],8.05 µM (inactive)
same,GI50,[53],12 µM (inactive)
same,GI50,[54],21.8 µM (inactive)
same,GI50,[55],28.2 µM (inactive)
same,GI50,[56],25 µM (inactive)
same,GI50,[57],15.2 µM (inactive)
same,GI50,[58],20.2 µM (inactive)
